Data on 21 molecules can be found in ChEMBL document CHEMBL1153281, “Synthesis and evaluation of aniline headgroups for alkynyl thienopyrimidine dual EGFR/ErbB-2 kinase inhibitors” (Bioorg Med Chem Lett, 2009).

In data set [1] the target is T1, Receptor tyrosine-protein kinase erbB-2 (Homo sapiens, UniProt P04626). Description: Inhibition of ErbB2 by HTRF assay. A general note: In TR-FRET formats the signal depends on donor and acceptor labels being close together.
Data set [2] relates to HN5. In words: Antiproliferative activity against human HN5 cells overexpressing EGFR after 3 days. Format: functional, cell-based. The conditions noted are these: HN5, 72 h.
Data set [3] relates to BT-474. In words: Antiproliferative activity against human BT474 cells overexpressing ErbB2 after 3 days. Type of data set: functional, cell-based. The conditions noted are these: BT-474, 72 h.
Data set [4] relates to HFF. Description: cells. The conditions noted are these: Homo sapiens. Format: ADME, cell-based.
In data set [5] the target is T2, Epidermal growth factor receptor (Homo sapiens, UniProt P00533).
T2 sequence (P00533 whole entry): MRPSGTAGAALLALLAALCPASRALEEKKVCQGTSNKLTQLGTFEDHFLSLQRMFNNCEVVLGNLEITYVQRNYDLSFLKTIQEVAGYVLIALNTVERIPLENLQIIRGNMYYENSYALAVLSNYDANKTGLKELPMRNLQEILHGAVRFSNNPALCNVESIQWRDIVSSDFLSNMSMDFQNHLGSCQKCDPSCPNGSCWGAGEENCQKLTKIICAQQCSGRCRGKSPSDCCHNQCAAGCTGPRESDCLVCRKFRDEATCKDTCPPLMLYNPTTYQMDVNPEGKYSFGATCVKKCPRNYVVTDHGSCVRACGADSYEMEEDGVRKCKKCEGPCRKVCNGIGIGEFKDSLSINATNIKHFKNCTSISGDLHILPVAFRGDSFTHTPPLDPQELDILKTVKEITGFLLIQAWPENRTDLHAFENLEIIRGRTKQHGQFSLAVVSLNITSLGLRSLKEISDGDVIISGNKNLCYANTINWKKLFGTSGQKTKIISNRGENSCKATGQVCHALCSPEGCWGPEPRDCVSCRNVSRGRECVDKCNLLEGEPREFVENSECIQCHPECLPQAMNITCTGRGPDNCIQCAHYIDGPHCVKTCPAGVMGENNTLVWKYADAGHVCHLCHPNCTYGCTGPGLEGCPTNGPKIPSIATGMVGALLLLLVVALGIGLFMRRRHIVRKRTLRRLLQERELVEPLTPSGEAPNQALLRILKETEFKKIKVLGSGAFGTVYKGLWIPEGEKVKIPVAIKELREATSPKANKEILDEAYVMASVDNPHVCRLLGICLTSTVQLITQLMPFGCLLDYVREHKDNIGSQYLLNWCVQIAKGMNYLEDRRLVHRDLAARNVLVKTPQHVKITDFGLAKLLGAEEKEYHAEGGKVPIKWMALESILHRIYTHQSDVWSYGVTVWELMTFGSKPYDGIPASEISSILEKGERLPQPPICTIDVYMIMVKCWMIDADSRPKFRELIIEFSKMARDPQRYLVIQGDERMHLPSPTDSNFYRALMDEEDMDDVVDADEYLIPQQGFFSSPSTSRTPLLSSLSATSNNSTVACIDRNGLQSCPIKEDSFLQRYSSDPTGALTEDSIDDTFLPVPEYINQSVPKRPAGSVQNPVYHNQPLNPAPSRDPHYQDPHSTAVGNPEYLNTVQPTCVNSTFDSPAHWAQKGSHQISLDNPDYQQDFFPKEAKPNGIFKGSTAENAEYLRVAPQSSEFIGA
Description: Inhibition of EGFR by HTRF assay
The nature of data set [6]: Protein binding in rat plasma by HPLC. The conditions noted are these: read-out: PPB (converted). Format: ADME, cell-free.
Data set [7] has as its system Mus musculus. Description: Dose normalized AUC in mouse at 10 mg/kg, po after 6 hrs. Type of data set: ADME, organism-based. More on the design: time < 6 hr, dose 10 mg/kg, route oral. The note with it: in vivo.
The target in data set [8] is T1, Receptor tyrosine-protein kinase erbB-2. Description: Inhibition of ErbB2 by SPA assay.
Data set [9] concerns the target T2, Epidermal growth factor receptor. Description: Inhibition of EGFR by SPA assay.
For data set [10], the system named is HN5. Description: Ratio of IC50 for human HN5 cells to IC50 for hman BT474 cells. Type of data set: functional.

Where only a bound is given, the exact number is not on record here.

T1 sequence (P04626 whole entry): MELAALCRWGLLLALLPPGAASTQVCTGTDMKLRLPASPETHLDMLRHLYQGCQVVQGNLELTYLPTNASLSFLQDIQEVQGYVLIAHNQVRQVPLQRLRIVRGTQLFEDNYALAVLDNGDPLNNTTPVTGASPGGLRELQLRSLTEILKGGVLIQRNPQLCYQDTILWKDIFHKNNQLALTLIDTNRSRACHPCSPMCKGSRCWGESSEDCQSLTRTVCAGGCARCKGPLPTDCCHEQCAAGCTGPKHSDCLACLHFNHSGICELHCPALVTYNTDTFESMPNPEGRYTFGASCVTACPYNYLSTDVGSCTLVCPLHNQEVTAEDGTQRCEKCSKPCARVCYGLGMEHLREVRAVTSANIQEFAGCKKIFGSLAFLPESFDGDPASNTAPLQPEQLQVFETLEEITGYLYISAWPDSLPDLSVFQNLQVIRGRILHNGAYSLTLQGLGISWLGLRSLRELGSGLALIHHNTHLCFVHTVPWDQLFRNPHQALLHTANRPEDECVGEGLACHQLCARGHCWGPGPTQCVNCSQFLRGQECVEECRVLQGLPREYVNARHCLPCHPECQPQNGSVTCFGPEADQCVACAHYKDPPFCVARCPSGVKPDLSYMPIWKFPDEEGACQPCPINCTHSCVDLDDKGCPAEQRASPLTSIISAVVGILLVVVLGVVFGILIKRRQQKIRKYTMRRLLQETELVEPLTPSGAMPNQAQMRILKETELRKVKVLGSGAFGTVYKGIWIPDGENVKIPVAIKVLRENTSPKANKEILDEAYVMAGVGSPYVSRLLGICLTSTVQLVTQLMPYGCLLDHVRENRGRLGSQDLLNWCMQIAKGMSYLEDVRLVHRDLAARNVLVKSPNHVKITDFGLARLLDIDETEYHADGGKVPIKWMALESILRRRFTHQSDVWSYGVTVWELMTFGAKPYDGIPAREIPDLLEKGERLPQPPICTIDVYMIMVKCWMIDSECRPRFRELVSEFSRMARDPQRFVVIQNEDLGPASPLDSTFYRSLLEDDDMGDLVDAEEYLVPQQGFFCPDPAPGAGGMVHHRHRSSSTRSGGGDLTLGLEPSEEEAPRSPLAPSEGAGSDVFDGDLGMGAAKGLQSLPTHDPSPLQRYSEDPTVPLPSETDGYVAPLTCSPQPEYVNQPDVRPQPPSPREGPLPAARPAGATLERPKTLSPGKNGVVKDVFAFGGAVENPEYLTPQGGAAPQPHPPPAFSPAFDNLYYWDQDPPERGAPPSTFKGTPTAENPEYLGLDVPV

What is called IC50 is the concentration at which inhibition is half-maximal. Read a low IC50 as greater potency. For `O=C(O[C@H]1CN[C@H](C#Cc2cc3ncnc(Nc4ccc5c(c4)c(F)cn5Cc4ccccc4)c3s2)C1)N1CCOCC1`, the IC50 was 210 nM in data set [1]; 320 nM in data set [2]; 120 nM in data set [3]; greater than 1000 nM in data set [4]; 240 nM in data set [5].
Take `O=C(O[C@H]1CN[C@H](C#Cc2cc3ncnc(Nc4ccc(Cc5ccccc5)cc4)c3s2)C1)N1CCOCC1`: the IC50 in data set [2] was 270 nM; in data set [3], 70 nM; in data set [4], greater than 1000 nM; in data set [5], 240 nM. Further, in data set [6], the fraction unbound is 0.036.
Regarding `O=C(O[C@H]1CN[C@H](C#Cc2cc3ncnc(Nc4ccc(Oc5ccnc6ccc(F)cc56)c(Cl)c4)c3s2)C1)N1CCOCC1`, the IC50 is 180 nM in [1]; 390 nM in data set [2]; 140 nM in data set [3]; greater than 1000 nM in [4]; 280 nM in [5]. The fraction unbound in data set [6] is 0.03.
Regarding `O=C(O[C@H]1CN[C@H](C#Cc2cc3ncnc(Nc4ccc(Sc5cccc(F)c5)c(Cl)c4)c3s2)C1)N1CCOCC1`, the IC50 in data set [1] is 800 nM; in data set [2], 310 nM; in data set [3] it was 150 nM; in [4], greater than 1000 nM; in data set [5], 630 nM. Further, the fraction unbound in [6] is 0.024.
As to `O=C(O[C@H]1CN[C@H](C#Cc2cc3ncnc(Nc4ccc(OCc5cscn5)c(Cl)c4)c3s2)C1)N1CCOCC1`, the IC50 in data set [1] was 60 nM; in data set [2], 440 nM; in data set [3], 70 nM; in data set [4], greater than 1000 nM; in data set [5], 120 nM. The fraction unbound in data set [6] was 0.051.
Take `O=C(O[C@H]1CN[C@H](C#Cc2cc3ncnc(Nc4ccc5c(cnn5Cc5cccc(F)c5)c4)c3s2)C1)N1CCOCC1`: the IC50 was 70 nM in data set [2] and greater than 1000 nM in data set [4]. Further, the AUC in [7] was 51 ng·h/mL/mg/kg. Further, the fraction unbound in data set [6] is 0.05.
As to `O=C(O[C@H]1CN[C@H](C#Cc2cc3ncnc(Nc4ccc(OCc5ccccn5)c(Cl)c4)c3s2)C1)N1CCOCC1`, the IC50 in data set [8] is 30 nM; in data set [2], 240 nM; in [3] it was 60 nM; in data set [4], greater than 1000 nM. Moreover, the AUC in data set [7] turned out to be 120 ng·h/mL/mg/kg. The fraction unbound in data set [6] was 0.031.
Consider `O=C(O[C@H]1CN[C@H](C#Cc2cc3ncnc(Nc4ccc(Sc5ccccn5)cc4)c3s2)C1)N1CCOCC1`, for which the IC50 in [1] was 220 nM; in [2], 380 nM; in [3], 100 nM; in data set [4], greater than 1000 nM; in data set [5], 1650 nM.
On to `O=C(O[C@H]1CN[C@H](C#Cc2cc3ncnc(Nc4ccc5c(ccn5CCc5ccccc5)c4)c3s2)C1)N1CCOCC1`, for which the IC50 was 2660 nM in [8], 2020 nM in data set [2], 4850 nM in [3] and greater than 1000 nM in data set [4].
`Cc1cc(Oc2ccc(Nc3ncnc4cc(C#C[C@@H]5C[C@@H](OC(=O)N6CCOCC6)CN5)sc34)cc2Cl)no1`: the IC50 in [1] is 370 nM; in [2] it was 1450 nM; in data set [3] it was 130 nM; in data set [4] it was greater than 1000 nM; in data set [5], 400 nM.
In the case of `O=C(O[C@H]1CN[C@H](C#Cc2cc3ncnc(Nc4ccc5c(ccn5Cc5cscn5)c4)c3s2)C1)N1CCOCC1`, the IC50 is 180 nM in [1]; 550 nM in data set [2]; 120 nM in data set [3]; greater than 1000 nM in data set [4]; 680 nM in data set [5].
Consider `O=C(O[C@H]1CN[C@H](C#Cc2cc3ncnc(Nc4ccc5c(Oc6ccccn6)cccc5c4)c3s2)C1)N1CCOCC1`, for which the IC50 in [1] was 260 nM; in [2] it was 120 nM; in [3], 100 nM; in data set [4], greater than 1000 nM; in data set [5], 1050 nM.
For `O=C(O[C@H]1CN[C@H](C#Cc2cc3ncnc(Nc4ccc5c(cnn5S(=O)(=O)c5cccc(F)c5)c4)c3s2)C1)N1CCOCC1`, in that order: 85 nM, 540 nM, 110 nM, greater than 1000 nM and 230 nM.
Turning to `O=C(O[C@H]1CN[C@H](C#Cc2cc3ncnc(Nc4ccc(OCc5cccc(F)c5)c(Cl)c4)c3s2)C1)N1CCOCC1` [GW869810X], the IC50 in [2] was 260 nM; in data set [3], 90 nM; in [4], greater than 1000 nM. This molecule also showed an AUC in data set [7] of 91 ng·h/mL/mg/kg. For the same molecule, in data set [6], the fraction unbound is 0.02.
With `O=C(O[C@H]1CN[C@H](C#Cc2cc3ncnc(Nc4ccc5c(ccn5S(=O)(=O)c5ccsc5)c4)c3s2)C1)N1CCOCC1`, the IC50 was 150 nM in [9]; 120 nM in data set [8]; 630 nM in data set [2]; 120 nM in [3]; greater than 1000 nM in [4].
For `O=C(O[C@H]1CN[C@H](C#Cc2cc3ncnc(Nc4ccc5c(cnn5Cc5ccccc5)c4)c3s2)C1)N1CCOCC1`, the IC50 in data set [1] was 50 nM; in data set [2], 70 nM; in data set [3], 20 nM; in [4], greater than 1000 nM; in [5], 80 nM. In [7], the AUC is 98 ng·h/mL/mg/kg. Further, in [6], the fraction unbound is 0.027.
For `CC(c1cccc(F)c1)n1ncc2cc(Nc3ncnc4cc(C#C[C@@H]5C[C@@H](OC(=O)N6CCOCC6)CN5)sc34)ccc21` (stereo partly specified), the IC50 in data set [1] was 130 nM; in data set [2], 70 nM; in [3], 130 nM; in [4] it was greater than 1000 nM; in data set [5], 120 nM.
With `O=C(O[C@H]1CN[C@H](C#Cc2cc3ncnc(Nc4ccc(OCc5cccc(F)c5)nc4)c3s2)C1)N1CCOCC1`, the IC50 in data set [1] is 450 nM; in data set [2] it was 490 nM; in [3], 250 nM; in data set [4] it was greater than 1000 nM; in data set [5], 2600 nM.
On to `O=C(O[C@H]1CN[C@H](C#Cc2cc3ncnc(Nc4ccc(Oc5ccccn5)c(Cl)c4)c3s2)C1)N1CCOCC1`, for which the IC50 in data set [8] is 60 nM; in data set [2] it was 280 nM; in data set [3] it was 80 nM; in data set [4] it was greater than 1000 nM. In data set [7], this molecule returned an AUC of 52 ng·h/mL/mg/kg. In addition, the fraction unbound in data set [6] was 0.033.
For `O=C(O[C@H]1CN[C@H](C#Cc2cc3ncnc(Nc4ccc5c(cnn5Cc5cc(F)ccc5F)c4)c3s2)C1)N1CCOCC1`, the IC50 in data set [1] is 35 nM; in data set [2], 250 nM; in [3], 10 nM; in [4], greater than 1000 nM; in data set [5] it was 33 nM. In addition, the “Ratio IC50” value in [10] is 20.
Regarding `O=C(O[C@H]1CN[C@H](C#Cc2cc3ncnc(Nc4ccc5c(ccn5Cc5ccccc5)c4)c3s2)C1)N1CCOCC1`, the IC50 is 60 nM in data set [1]; 190 nM in data set [2]; 110 nM in data set [3]; greater than 1000 nM in [4]; 90 nM in [5].
